The record followed here is patent US8466149B2, “6-substituted sulfonyl azabicyclo[3.2.1]octanes useful to inhibit 11β-hydroxysteroid dehydrogenase type-I” (Merck Sharp & Dohme Corp., priority 2007, dated 2013).

Molecules are shown by their SMILES.

The target of one assay is T1, Human 11β-HSD1 (Homo sapiens, UniProt P28845).
T1 construct: myc (N); made in house; host or cells: Sf9 cells (baculovirus, Bac-to-Bac)
In words: In vitro 11β-HSD1 activity assay (SPA, 3H-cortisone, membranes). Conditions: human 11β-HSD1 membranes, 125 nM 3H-cortisone, read-out: Human 11β-HSD-1 IC50. Type of assay: biochemical. How it is done:
In vitro 11β-HSD1 activity assay Preparation of 11β-HSD1 membranes
Human 11β-HSD1 with N-terminal myc tag was expressed in Sf9 cells using baculovirus Bac-to-Bac expression system (Invitrogen) according to manufacturer's instructions. Cells were harvested three days after infection and washed in PBS before frozen. To make membranes, the cells were resuspended in buffer A (20 mM Tris-HCl, pH7.4, 100 mM NaCl, 2 mM EDTA, 2 mM EGTA and Complete™ protease inhibitor tablets (Roche Molecular Biochemicals)), and lysed in a nitrogen bomb at 900 psi. The cell lysate was centrifuged at 600 g for 10 min to remove nuclei and large cell debris. The supernatant was centrifuged at 100,000 g for 1 hr. The membrane pellet was resuspended in buffer A, flash-frozen in liquid nitrogen and stored at −70° C. before use.
(§1) Measurement of 11β-HSD1 activity
(§2) 11β-HSD1 enzymatic activity was measured in a 50 μl reaction containing 20 mM NaPO4 pH 7.5, 0.1 mM MgCl2, 3 mM NADPH (prepared fresh daily), 125 nM ^3H-cortisone (American Radiochemicals) and 0.5 μg membrane. The reaction was incubated at room temperature for 1 hr before it was stopped by addition of […] containing 20 mM NaPO4 pH 7.5, 30 μM 18β-glycyrrhetinic acid, 1 μg/ml monoclonal anti-cortisol antibody (Biosource) and 2 mg/ml anti-mouse antibody coated scintillation proximity assay (SPA) beads (Amersham Bioscience). The mixture was incubated at room temperature for 2 hrs with vigorous shaking and analyzed on TopCount scintillation counter.

The target of another assay is Mouse 11β-HSD-1 (Mus musculus, UniProt P50172). The assay can be described thus: In vitro 11β-HSD1 activity assay, mouse enzyme. Type of assay: biochemical. How it is done: as §1, §2
In a further assay the target is T2, 11β-HSD-1 (Mus musculus, UniProt P50172).
T2 construct: from tissue; host or cells: whole animal, C57Bl/6N mice
The assay can be described thus: In vivo screen for inhibition of 11β-HSD-1 (mouse cortisone challenge, plasma cortisol). To be noted: 30 mpk oral, lean male C57BI/6N mice, cortisone 1 mg/kg sc, plasma cortisol by ELISA. How it is done:
In Vivo Screen for Inhibition of 11β-HSD-1
Lean male C57BI/6N mice were orally dosed with a solution of dexamethasone (0.5 mg/kg) and test agent or vehicle (20% HPβCD (10 ml/kg)). One hour later, cortisone was administered (1 mg/kg sc in sesame oil). One hour after cortisone administration, animals were euthanized for blood collection, and plasma cortisol levels were determined with a commercially available ELISA.
On the technique in general: ELISA stands for enzyme-linked immunosorbent assay.

T1 sequence (P28845 whole entry): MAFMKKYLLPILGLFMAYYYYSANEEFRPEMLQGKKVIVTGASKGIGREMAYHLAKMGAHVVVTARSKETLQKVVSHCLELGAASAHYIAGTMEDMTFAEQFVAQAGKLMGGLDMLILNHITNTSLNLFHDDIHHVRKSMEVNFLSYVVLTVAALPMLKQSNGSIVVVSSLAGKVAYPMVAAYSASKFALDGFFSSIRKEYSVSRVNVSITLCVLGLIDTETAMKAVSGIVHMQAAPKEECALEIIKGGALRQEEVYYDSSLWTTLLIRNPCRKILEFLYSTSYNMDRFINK
Mouse 11β-HSD-1, sequence (P50172 whole entry): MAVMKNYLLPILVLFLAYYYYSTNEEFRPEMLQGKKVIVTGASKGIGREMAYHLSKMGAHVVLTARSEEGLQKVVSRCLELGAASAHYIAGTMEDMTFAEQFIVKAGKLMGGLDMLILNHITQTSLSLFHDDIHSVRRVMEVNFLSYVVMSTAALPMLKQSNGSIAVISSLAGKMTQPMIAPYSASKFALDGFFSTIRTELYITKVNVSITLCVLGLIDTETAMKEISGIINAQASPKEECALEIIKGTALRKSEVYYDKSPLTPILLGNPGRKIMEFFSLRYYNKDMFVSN
T2 sequence (P50172 whole entry): as above

What is called IC50 is the concentration that inhibits the measured activity by half. Consider `CC1(C)CC2CC(C)(CN2S(=O)(=O)c2ccc(C(C)(C)C)cc2)C1` (stereo not drawn) [Compound No. 1], for which the values for the IC50 at Human 11β-HSD1 and on Mouse 11β-HSD-1 were 31 nM and 71 nM, respectively. On 11β-HSD-1, the “Mouse cort. challenge % I @ 30 mpk” value was 30%.
Turning to `Cc1ccccc1S(=O)(=O)N1CC2(C)CC1CC(C)(C)C2` (stereo not drawn) [Compound No. 5], the IC50 on Human 11β-HSD1 is 3010 nM; against Mouse 11β-HSD-1 it was 18200 nM.
As to `Cc1ccc(S(=O)(=O)N2CC3(C)CC2CC(C)(C)C3)cc1` (stereo not drawn) [Compound No. 6], the results for the IC50 on Human 11β-HSD1 and on Mouse 11β-HSD-1 were 247 nM and 670 nM, respectively.
The matching figures for `CC(=O)c1ccc(S(=O)(=O)N2CC3(C)CC2CC(C)(C)C3)cc1` (stereo not drawn) [Compound No. 16]: 139 nM and 732 nM.
In the case of `CCC(C)(C)c1ccc(S(=O)(=O)N2CC3(C)CC2CC(C)(C)C3)cc1` (stereo not drawn) [Compound No. 23], the figures for the IC50 on Human 11β-HSD1 and on Mouse 11β-HSD-1 were 28 nM and 19 nM, respectively. For the same compound, at 11β-HSD-1, the “Mouse cort. challenge % I @ 30 mpk” value is 26%.
As for `CC1(C)CC2CC(C)(CN2S(=O)(=O)c2ccc(Cl)c3nonc23)C1` (stereo not drawn) [compound 3], the concentration for half-maximal inhibition (IC50) stood at 407 nM on Human 11β-HSD1 and 1870 nM against Mouse 11β-HSD-1.
The matching figures for `CC1(C)CC2CC(C)(CN2S(=O)(=O)Cc2ccccc2)C1` (stereo not drawn) [compound 4]: 3390 nM and 7930 nM.
The matching figures for `CCc1ccc(S(=O)(=O)N2CC3(C)CC2CC(C)(C)C3)cc1` (stereo not drawn) [compound 9]: 190 nM and 420 nM.
Take `COc1cccc(S(=O)(=O)N2CC3(C)CC2CC(C)(C)C3)c1` (stereo not drawn) [compound 10]: the IC50 came to 2510 nM at Human 11β-HSD1 and 3170 nM on Mouse 11β-HSD-1.
In the same order, the values of `CC1(C)CC2CC(C)(CN2S(=O)(=O)c2ccccc2Cl)C1` (stereo not drawn) [compound 12] are 1410 nM and 28200 nM.
As to `CC1(C)CC2CC(C)(CN2S(=O)(=O)c2ccc(Cl)cc2)C1` (stereo not drawn) [compound 13], the IC50 on Human 11β-HSD1 was 407 nM; at Mouse 11β-HSD-1, 2480 nM.
Regarding `CC(C)c1ccc(S(=O)(=O)N2CC3(C)CC2CC(C)(C)C3)cc1` (stereo not drawn) [compound 17], the IC50 turned out to be 67 nM at Human 11β-HSD1 and 127 nM against Mouse 11β-HSD-1.
`CC1(C)CC2CC(C)(CN2S(=O)(=O)c2ccc(-c3ccccc3)cc2)C1` (stereo not drawn) [compound 25]: the IC50 was 169 nM on Human 11β-HSD1 and 364 nM at Mouse 11β-HSD-1.
On to `CC1(C)CC2CC(C)(CN2S(=O)(=O)c2ccccc2C#N)C1` (stereo not drawn) [compound 29], for which the IC50 on Human 11β-HSD1 is 5710 nM; at Mouse 11β-HSD-1, 13300 nM.
In the same order, the values of `CC1(C)CC2CC(C)(CN2S(=O)(=O)c2ccc(I)cc2)C1` (stereo not drawn) [compound 32] are 2510 nM and 3170 nM.
For the compound `CC(O)c1ccc(S(=O)(=O)N2CC3(C)CC2CC(C)(C)C3)cc1` (stereo not drawn) [compound 44], the IC50 amounted to 16 nM on Human 11β-HSD1 and 67 nM at Mouse 11β-HSD-1. In addition, at 11β-HSD-1, the “Mouse cort. challenge % I @ 30 mpk” value was determined as 63%.
On to `COC(C)c1ccc(S(=O)(=O)N2CC3(C)CC2CC(C)(C)C3)cc1` (stereo not drawn) [compound 45], for which the IC50 at Human 11β-HSD1 came out at 19 nM; at Mouse 11β-HSD-1, 27 nM. In addition, at 11β-HSD-1, the “Mouse cort. challenge % I @ 30 mpk” value is 16%.
In the case of `CCOC(C)c1ccc(S(=O)(=O)N2CC3(C)CC2CC(C)(C)C3)cc1` (stereo not drawn) [compound 46], the IC50 at Human 11β-HSD1 was 10 nM; against Mouse 11β-HSD-1 it was 87 nM.
`CC1(C)CC2CC(C)(CN2S(=O)(=O)c2ccc(C(F)(F)F)cc2)C1` (stereo not drawn) [compound 48]: the IC50 on Human 11β-HSD1 turned out to be 268 nM; against Mouse 11β-HSD-1 it was 686 nM.
For `COC(C)(C)c1ccc(S(=O)(=O)N2CC3CC(C)(C2)CC3(C)C)cc1` (stereo not drawn) [compound 49], the IC50 at Human 11β-HSD1 amounted to 23 nM; against Mouse 11β-HSD-1, 11 nM. Also, the “Mouse cort. challenge % I @ 30 mpk” value at 11β-HSD-1 amounted to 19%.
The matching figures for `CC1(C)CC2CC(C)(CN2S(=O)(=O)c2ccc(C(C)(C)O)cc2)C1` (stereo not drawn) [compound 50]: 7 nM, 43 nM and 43%.
In the case of `CC1(C)CC2CC(C)(CN2S(=O)(=O)c2ccc(C3CCCCC3)cc2)C1` (stereo not drawn) [compound 61], the IC50 was determined as 415 nM at Human 11β-HSD1 and 165 nM on Mouse 11β-HSD-1.
In the same order, the values of `CC1(C)CC2CC(C)(CN2S(=O)(=O)c2ccc(-c3cnco3)cc2)C1` (stereo not drawn) [compound 62] are 96 nM and 309 nM.
The matching figures for `CC1(C)CC2CC(C)(CN2S(=O)(=O)c2ccc(-c3csnn3)cc2)C1` (stereo not drawn) [compound 63]: 111 nM and 305 nM.
In the same order, the values of `CC(C)Oc1ccc(S(=O)(=O)N2CC3(C)CC2CC(C)(C)C3)cc1` (stereo not drawn) [compound 64] are 340 nM and 217 nM.
As for `CCCCc1ccc(S(=O)(=O)N2CC3(C)CC2CC(C)(C)C3)cc1` (stereo not drawn) [compound 65], the values for the IC50 at Human 11β-HSD1 and against Mouse 11β-HSD-1 were 372 nM and 950 nM, respectively.
With `CCC(C)c1ccc(S(=O)(=O)N2CC3(C)CC2CC(C)(C)C3)cc1` (stereo not drawn) [compound 68], the IC50 stood at 55 nM on Human 11β-HSD1 and 112 nM against Mouse 11β-HSD-1.
In the same order, the values of `CCC(C)(O)c1ccc(S(=O)(=O)N2CC3(C)CC2CC(C)(C)C3)cc1` (stereo not drawn) [compound 69] are 30 nM and 68 nM.
The matching figures for `CC1(C)CC2CC(C)(CN2S(=O)(=O)c2ccc([N+](=O)[O-])cc2)C1` (stereo not drawn) [compound 75]: 126 nM and 5940 nM.
Regarding `CC1(C)CC2CC(C)(CN2S(=O)(=O)c2ccc(C#N)cc2)C1` (stereo not drawn) [compound 76], the IC50 is 126 nM on Human 11β-HSD1 and 1820 nM on Mouse 11β-HSD-1.
